From patent US10597388B2, “Pyridazinone herbicides” (FMC CORPORATION, priority 2014, dated 2020)

Legend:
Format in all cases: in vivo
[1] = test system: barnyardgrass (Echinochloa crus-galli); test: Test C greenhouse herbicide test, pre- and postemergence
From the text: (§1) Seeds of plant species selected from blackgrass (Alopecurus myosuroides), ryegrass, Italian (Italian ryegrass, Lolium multiflorum), wheat (winter wheat, Triticum aestivum), galium (catchweed bedstraw, Galium aparine), corn (Zea mays), large crabgrass, large (large crabgrass, Digitaria sanguinalis), foxtail, giant (giant foxtail, Setaria faberii), johnsongrass (Sorghum halepense), lambsquarters (Chenopodium album), morningglory (Ipomoea coccinea), nutsedge, yellow (yellow nutsedge, Cyperus esculentus), pigweed (Amaranthus retroflexus), ragweed (common ragweed, Ambrosia elatior), soybean (Glycine max), barnyardgrass (Echinochloa crus-galli), oilseed rape (Brassica napus), waterhemp (common waterhemp, Amaranthus rudis), and velvetleaf (Abutilon theophrasti) were planted into a blend of loam soil and sand and treated preemergence with test chemicals formulated in a non-phytotoxic solvent mixture which included a surfactant.
(§2) At the same time, plants selected from these crop and weed species and also chickweed (common chickweed, Stellaria media), kochia (Kochia scoparia), and oat, wild (wild oat, Avena fatua), were planted in pots containing Redi-Earth® planting medium (Scotts Company, 14111 Scottslawn Road, Marysville, Ohio 43041) comprising spaghnum peat moss, vermiculite, wetting agent and starter nutrients and treated with postemergence applications of test chemicals formulated in the same manner. Plants ranged in height from 2 to 18 cm (1- to 4-leaf stage) for postemergence treatments. Treated plants and controls were maintained in a greenhouse for 13 to 15 d, after which time all species were compared to controls and visually evaluated. Plant response ratings, summarized in Table C, are based on a scale of 0 to 100 where 0 is no effect and 100 is complete control. A dash (-) response means no test result.

[2] = test system: blackgrass (Alopecurus myosuroides); test: as above
From the text: as §1, §2

corn (Zea mays) = test: as above
From the text: as §1, §2

[3] = test system: crabgrass, large (large crabgrass, Digitaria sanguinalis); test: as above
From the text: as §1, §2

[4] = test system: foxtail, giant (giant foxtail, Setaria faberii); test: as above
From the text: as §1, §2

[5] = test system: galium (catchweed bedstraw, Galium aparine); test: as above
From the text: as §1, §2

[6] = test system: johnsongrass (Sorghum halepense); test: as above
From the text: as §1, §2

[7] = test system: morningglory (Ipomoea coccinea); test: as above
From the text: as §1, §2

[8] = test system: oilseed rape (Brassica napus); test: as above
From the text: as §1, §2

[9] = test system: pigweed (Amaranthus retroflexus); test: as above
From the text: as §1, §2

[10] = test system: ragweed (common ragweed, Ambrosia elatior); test: as above
From the text: as §1, §2

soybean (Glycine max) = test: as above
From the text: as §1, §2

[11] = test system: velvetleaf (Abutilon theophrasti); test: as above
From the text: as §1, §2

[12] = test system: waterhemp (common waterhemp, Amaranthus rudis); test: as above
From the text: as §1, §2

[13] = test system: wheat (winter wheat, Triticum aestivum); test: as above
From the text: as §1, §2

kochia (Kochia scoparia) = test: Test C greenhouse herbicide test, postemergence
Method in brief: (§3)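 Visual injury scores (0–100, where 100 means complete control) were assigned 13 to 15 d after postemergence application, by comparison with untreated plants. Treated seedlings stood 2 to 18 cm tall, at the 1- to 4-leaf stage.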

[14] = test system: oat, wild (wild oat, Avena fatua); test: Test C greenhouse herbicide test, postemergence
Method in brief: as §3

[15] = Postemergence, 31 g ai/ha, 0 to 100 scale (0 no effect, 100 complete control)
[16] = Postemergence, 125 g ai/ha, scale 0 to 100, 0 is no effect, 100 is complete control
[17] = Postemergence, 250 g ai/ha, scale 0 to 100, 0 no effect, 100 complete control, 13 to 15 d
[18] = Preemergence, 31 g ai/ha, scale 0 to 100, 0 is no effect, 100 is complete control
[19] = Preemergence, 62 g ai/ha, scale 0 to 100, 0 is no effect, 100 is complete control
[20] = Preemergence, 125 g ai/ha, scale 0 to 100, 0 is no effect, 100 is complete control
[21] = Preemergence, 250 g ai/ha, scale 0 to 100 (0 no effect, 100 complete control)
[22] = postemergence, 62 g ai/ha, scale 0 to 100, 0 no effect, 100 complete control

CCC(=O)Oc1c(C)nn(C)c(=O)c1-c1c(C)sc2c(C)cc(C)cc12 [Compound 28]
Barnyardgrass plant response rating [1, 15]: 20
Plant response rating, Barnyardgrass [1, 16]: 35
Plant response rating, Barnyardgrass [1, 17]: 40
Plant response rating, Barnyardgrass [1, 18]: 45
Plant response rating, Barnyardgrass [1, 19]: 75
Plant response rating, Barnyardgrass [1, 20]: 90
Barnyardgrass plant response rating [1, 21]: 95
Barnyardgrass plant response rating [1, 22]: 25
Blackgrass plant response rating [2, 15]: 50
Plant response rating, Blackgrass [2, 16]: 80
Plant response rating, Blackgrass [2, 17]: 90
Plant response rating, Blackgrass [2, 18]: 85
Plant response rating, Blackgrass [2, 19]: 90
Plant response rating, Blackgrass [2, 20]: 90
Blackgrass plant response rating [2, 21]: 90
Blackgrass plant response rating [2, 22]: 70
Corn plant response rating (corn (Zea mays); [15]): 5
Plant response rating, Corn (corn (Zea mays); [16]): 5
Plant response rating, Corn (corn (Zea mays); [17]): 15
Plant response rating, Corn (corn (Zea mays); [18]): 0
Plant response rating, Corn (corn (Zea mays); [19]): 0
Plant response rating, Corn (corn (Zea mays); [20]): 30
Corn plant response rating (corn (Zea mays); [21]): 15
Corn plant response rating (corn (Zea mays); [22]): 5
Crabgrass, Large plant response rating [3, 15]: 25
Plant response rating, Crabgrass, Large [3, 16]: 40
Plant response rating, Crabgrass, Large [3, 17]: 45
Plant response rating, Crabgrass, Large [3, 18]: 25
Plant response rating, Crabgrass, Large [3, 19]: 60
Plant response rating, Crabgrass, Large [3, 20]: 80
Crabgrass, Large plant response rating [3, 21]: 85
Crabgrass, Large plant response rating [3, 22]: 20
Foxtail, Giant plant response rating [4, 15]: 60
Plant response rating, Foxtail, Giant [4, 16]: 85
Plant response rating, Foxtail, Giant [4, 17]: 95
Plant response rating, Foxtail, Giant [4, 18]: 85
Plant response rating, Foxtail, Giant [4, 19]: 100
Plant response rating, Foxtail, Giant [4, 20]: 100
Foxtail, Giant plant response rating [4, 21]: 100
Foxtail, Giant plant response rating [4, 22]: 80
Galium plant response rating [5, 15]: 100
Plant response rating, Galium [5, 16]: 100
Plant response rating, Galium [5, 17]: 100
Plant response rating, Galium [5, 18]: 95
Plant response rating, Galium [5, 19]: 95
Plant response rating, Galium [5, 20]: 95
Galium plant response rating [5, 21]: 95
Galium plant response rating [5, 22]: 100
Johnsongrass plant response rating [6, 15]: 5
Plant response rating, Johnsongrass [6, 17]: 30
Plant response rating, Johnsongrass [6, 18]: 0
Plant response rating, Johnsongrass [6, 19]: 0
Plant response rating, Johnsongrass [6, 20]: 5
Johnsongrass plant response rating [6, 21]: 10
Johnsongrass plant response rating [6, 22]: 5
Morningglory plant response rating [7, 15]: 95
Plant response rating, Morningglory [7, 16]: 100
Plant response rating, Morningglory [7, 17]: 100
Plant response rating, Morningglory [7, 18]: 80
Plant response rating, Morningglory [7, 19]: 98
Plant response rating, Morningglory [7, 20]: 98
Morningglory plant response rating [7, 21]: 100
Morningglory plant response rating [7, 22]: 98
Oilseed Rape plant response rating [8, 15]: 5
Plant response rating, Oilseed Rape [8, 16]: 5
Plant response rating, Oilseed Rape [8, 17]: 70
Plant response rating, Oilseed Rape [8, 18]: 0
Plant response rating, Oilseed Rape [8, 19]: 20
Plant response rating, Oilseed Rape [8, 20]: 85
Oilseed Rape plant response rating [8, 21]: 90
Oilseed Rape plant response rating [8, 22]: 60
Pigweed plant response rating [9, 15]: 60
Plant response rating, Pigweed [9, 16]: 90
Plant response rating, Pigweed [9, 17]: 90
Plant response rating, Pigweed [9, 18]: 100
Plant response rating, Pigweed [9, 19]: 100
Plant response rating, Pigweed [9, 20]: 100
Pigweed plant response rating [9, 21]: 100
Pigweed plant response rating [9, 22]: 85
Ragweed plant response rating [10, 15]: 65
Plant response rating, Ragweed [10, 16]: 85
Plant response rating, Ragweed [10, 17]: 90
Plant response rating, Ragweed [10, 18]: 70
Plant response rating, Ragweed [10, 19]: 90
Plant response rating, Ragweed [10, 20]: 95
Ragweed plant response rating [10, 21]: 90
Ragweed plant response rating [10, 22]: 75
Soybean plant response rating (soybean (Glycine max); [15]): 0
Plant response rating, Soybean (soybean (Glycine max); [16]): 0
Plant response rating, Soybean (soybean (Glycine max); [17]): 5
Plant response rating, Soybean (soybean (Glycine max); [19]): 25
Plant response rating, Soybean (soybean (Glycine max); [20]): 0
Soybean plant response rating (soybean (Glycine max); [21]): 50
Soybean plant response rating (soybean (Glycine max); [22]): 0
Velvetleaf plant response rating [11, 15]: 70
Plant response rating, Velvetleaf [11, 16]: 85
Plant response rating, Velvetleaf [11, 17]: 90
Plant response rating, Velvetleaf [11, 19]: 85
Plant response rating, Velvetleaf [11, 20]: 90
Velvetleaf plant response rating [11, 21]: 95
Velvetleaf plant response rating [11, 22]: 85
Waterhemp plant response rating [12, 15]: 60
Plant response rating, Waterhemp [12, 16]: 85
Plant response rating, Waterhemp [12, 17]: 85
Plant response rating, Waterhemp [12, 19]: 75
Plant response rating, Waterhemp [12, 20]: 85
Waterhemp plant response rating [12, 21]: 100
Waterhemp plant response rating [12, 22]: 75
Wheat plant response rating [13, 15]: 0
Plant response rating, Wheat [13, 16]: 0
Plant response rating, Wheat [13, 17]: 5
Plant response rating, Wheat [13, 19]: 0
Plant response rating, Wheat [13, 20]: 0
Wheat plant response rating [13, 21]: 10
Wheat plant response rating [13, 22]: 0
Kochia plant response rating (kochia (Kochia scoparia); [15]): 70
Plant response rating, Kochia (kochia (Kochia scoparia); [16]): 95
Plant response rating, Kochia (kochia (Kochia scoparia); [17]): 100
Kochia plant response rating (kochia (Kochia scoparia); [22]): 70
Oat, Wild plant response rating [14, 15]: 95
Plant response rating, Oat, Wild [14, 16]: 100
Plant response rating, Oat, Wild [14, 17]: 100
Oat, Wild plant response rating [14, 22]: 95
